Experimental data as given in the supplement of paper PMC10307832.

Tests used:
Assay in all cases: relative viability (nuclei count vs DMSO), 5 days (fraction); higher = more cells survive
Imatinib + Luminespib = compound: Cc1ccc(NC(=O)c2ccc(CN3CCN(C)CC3)cc2)cc1Nc1nccc(-c2cccnc2)n1 [Imatinib] + CCNC(=O)c1noc(-c2cc(C(C)C)c(O)cc2O)c1-c1ccc(CN2CCOCC2)cc1 [Luminespib] (partner 0.01 µM)
In short: (§1)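 Dosing by pin tool came one day after lung cancer cell lines were seeded in 1536-well plates, using either one drug or a fixed anchor-drug dose plus five library-drug doses (not always all listed) in √10 steps. After 5 days, nuclei were counted on 4× images. Relative viability is treated-well nuclei count divided by vehicle-well nuclei count, and values are medians of duplicate plates.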

Imatinib + Decitabine = compound: Cc1ccc(NC(=O)c2ccc(CN3CCN(C)CC3)cc2)cc1Nc1nccc(-c2cccnc2)n1 [Imatinib] + Nc1ncn([C@H]2C[C@H](O)[C@@H](CO)O2)c(=O)n1 [Decitabine] (partner 2 µM)
In short: as §1

Imatinib + Dasatinib = compound: Cc1ccc(NC(=O)c2ccc(CN3CCN(C)CC3)cc2)cc1Nc1nccc(-c2cccnc2)n1 [Imatinib] + Cc1nc(Nc2ncc(C(=O)Nc3c(C)cccc3Cl)s2)cc(N2CCN(CCO)CC2)n1 [Dasatinib] (partner 0.075 µM)
In short: as §1

Imatinib + Olaparib = compound: Cc1ccc(NC(=O)c2ccc(CN3CCN(C)CC3)cc2)cc1Nc1nccc(-c2cccnc2)n1 [Imatinib] + O=C(c1cc(Cc2n[nH]c(=O)c3ccccc23)ccc1F)N1CCN(C(=O)C2CC2)CC1 [Olaparib] (partner 8 µM)
In short: as §1

| Cell Line | relative viability (Imatinib + Luminespib; first compound 0.02 µM) | relative viability (Imatinib + Luminespib; first compound 0.06325 µM) | relative viability (Imatinib + Luminespib; first compound 0.2 µM) | relative viability (Imatinib + Luminespib; first compound 0.6325 µM) | relative viability (Imatinib + Luminespib; first compound 2 µM) | relative viability (Imatinib + Decitabine; first compound 0.02 µM) | relative viability (Imatinib + Decitabine; first compound 0.06325 µM) | relative viability (Imatinib + Decitabine; first compound 0.2 µM) | relative viability (Imatinib + Decitabine; first compound 0.6325 µM) | relative viability (Imatinib + Decitabine; first compound 2 µM) | relative viability (Imatinib + Dasatinib; first compound 0.02 µM) | relative viability (Imatinib + Dasatinib; first compound 0.06325 µM) | relative viability (Imatinib + Dasatinib; first compound 0.2 µM) | relative viability (Imatinib + Dasatinib; first compound 0.6325 µM) | relative viability (Imatinib + Dasatinib; first compound 2 µM) | relative viability (Imatinib + Olaparib; first compound 0.02 µM) | relative viability (Imatinib + Olaparib; first compound 0.06325 µM) | relative viability (Imatinib + Olaparib; first compound 0.2 µM) | relative viability (Imatinib + Olaparib; first compound 0.6325 µM) | relative viability (Imatinib + Olaparib; first compound 2 µM) |
| --- | --- | --- | --- | --- | --- | --- | --- | --- | --- | --- | --- | --- | --- | --- | --- | --- | --- | --- | --- | --- |
| COR-L23 | 0.806 | 0.709 | 0.79 | 0.802 | 0.654 | 0.382 | 0.507 | 0.474 | 0.409 | 0.455 | 0.555 | 0.451 | 0.43 | 0.591 | 0.539 | 0.394 | 0.367 | 0.363 | 0.383 | 0.308 |
| NCI-H23 | 0.248 | 0.225 | 0.221 | 0.185 | 0.189 | 0.319 | 0.31 | 0.299 | 0.287 | 0.355 | 1.06 | 0.688 | 0.694 | 0.78 | 0.972 | 0.384 | 0.287 | 0.32 | 0.376 | 0.32 |
| NCI-H1666 | 1.06 | 1.21 | – | 1.18 | 1.03 | 0.699 | 0.716 | 0.779 | 0.796 | 0.727 | 0.83 | 0.838 | 0.825 | 0.792 | 0.697 | 0.734 | 0.763 | 0.769 | 0.833 | 0.74 |
| PC-14 | 0.16 | – | 0.232 | – | 0.165 | 0.253 | 0.244 | 0.249 | 0.199 | 0.208 | 0.221 | 0.201 | 0.2 | 0.196 | 0.239 | 0.274 | 0.229 | 0.357 | 0.221 | 0.244 |
| NCI-H596 | 0.984 | 1.29 | 1.01 | 0.798 | 0.91 | 1.12 | 1.01 | 1.17 | – | 0.971 | 0.597 | 0.582 | 0.831 | 0.499 | 0.641 | 0.648 | 0.811 | 0.681 | 0.665 | 0.747 |
| NCI-H460 | 0.0343 | 0.0424 | 0.0365 | 0.0344 | 0.0321 | 0.603 | 0.333 | 0.63 | 0.511 | 0.575 | 0.678 | 0.675 | 0.649 | 0.456 | 0.493 | 0.515 | 0.431 | 0.402 | 0.462 | 0.396 |
| NCI-H3122 | 0.0854 | 0.0818 | 0.112 | 0.126 | 0.076 | 0.44 | 0.467 | 0.441 | 0.439 | 0.375 | – | 0.518 | 0.921 | 0.894 | 0.808 | 0.71 | 0.618 | 0.701 | 0.693 | 0.66 |
| A-427 | 1.06 | – | 0.868 | 0.903 | 0.9 | 0.588 | 0.536 | 0.558 | 0.558 | 0.562 | – | – | 0.798 | 0.805 | 0.714 | 0.797 | – | 0.754 | 0.715 | 0.748 |
